Data reported in publication doi:10.1101/2020.07.28.225383v1 (biorxiv, 2020).

Tests used:
[1] = molecular target: SkMII (skeletal muscle myosin II); assay: NADH-linked ATPase assay, quadratic […] binding fit; type: biochemical
[2] = molecular target: CMII (bovine cardiac myosin II, MYH7) (Bos taurus, UniProt Q9BE39); assay: as above; type: biochemical
Chain of CMII (bovine cardiac myosin II, MYH7) (Q9BE39 whole entry): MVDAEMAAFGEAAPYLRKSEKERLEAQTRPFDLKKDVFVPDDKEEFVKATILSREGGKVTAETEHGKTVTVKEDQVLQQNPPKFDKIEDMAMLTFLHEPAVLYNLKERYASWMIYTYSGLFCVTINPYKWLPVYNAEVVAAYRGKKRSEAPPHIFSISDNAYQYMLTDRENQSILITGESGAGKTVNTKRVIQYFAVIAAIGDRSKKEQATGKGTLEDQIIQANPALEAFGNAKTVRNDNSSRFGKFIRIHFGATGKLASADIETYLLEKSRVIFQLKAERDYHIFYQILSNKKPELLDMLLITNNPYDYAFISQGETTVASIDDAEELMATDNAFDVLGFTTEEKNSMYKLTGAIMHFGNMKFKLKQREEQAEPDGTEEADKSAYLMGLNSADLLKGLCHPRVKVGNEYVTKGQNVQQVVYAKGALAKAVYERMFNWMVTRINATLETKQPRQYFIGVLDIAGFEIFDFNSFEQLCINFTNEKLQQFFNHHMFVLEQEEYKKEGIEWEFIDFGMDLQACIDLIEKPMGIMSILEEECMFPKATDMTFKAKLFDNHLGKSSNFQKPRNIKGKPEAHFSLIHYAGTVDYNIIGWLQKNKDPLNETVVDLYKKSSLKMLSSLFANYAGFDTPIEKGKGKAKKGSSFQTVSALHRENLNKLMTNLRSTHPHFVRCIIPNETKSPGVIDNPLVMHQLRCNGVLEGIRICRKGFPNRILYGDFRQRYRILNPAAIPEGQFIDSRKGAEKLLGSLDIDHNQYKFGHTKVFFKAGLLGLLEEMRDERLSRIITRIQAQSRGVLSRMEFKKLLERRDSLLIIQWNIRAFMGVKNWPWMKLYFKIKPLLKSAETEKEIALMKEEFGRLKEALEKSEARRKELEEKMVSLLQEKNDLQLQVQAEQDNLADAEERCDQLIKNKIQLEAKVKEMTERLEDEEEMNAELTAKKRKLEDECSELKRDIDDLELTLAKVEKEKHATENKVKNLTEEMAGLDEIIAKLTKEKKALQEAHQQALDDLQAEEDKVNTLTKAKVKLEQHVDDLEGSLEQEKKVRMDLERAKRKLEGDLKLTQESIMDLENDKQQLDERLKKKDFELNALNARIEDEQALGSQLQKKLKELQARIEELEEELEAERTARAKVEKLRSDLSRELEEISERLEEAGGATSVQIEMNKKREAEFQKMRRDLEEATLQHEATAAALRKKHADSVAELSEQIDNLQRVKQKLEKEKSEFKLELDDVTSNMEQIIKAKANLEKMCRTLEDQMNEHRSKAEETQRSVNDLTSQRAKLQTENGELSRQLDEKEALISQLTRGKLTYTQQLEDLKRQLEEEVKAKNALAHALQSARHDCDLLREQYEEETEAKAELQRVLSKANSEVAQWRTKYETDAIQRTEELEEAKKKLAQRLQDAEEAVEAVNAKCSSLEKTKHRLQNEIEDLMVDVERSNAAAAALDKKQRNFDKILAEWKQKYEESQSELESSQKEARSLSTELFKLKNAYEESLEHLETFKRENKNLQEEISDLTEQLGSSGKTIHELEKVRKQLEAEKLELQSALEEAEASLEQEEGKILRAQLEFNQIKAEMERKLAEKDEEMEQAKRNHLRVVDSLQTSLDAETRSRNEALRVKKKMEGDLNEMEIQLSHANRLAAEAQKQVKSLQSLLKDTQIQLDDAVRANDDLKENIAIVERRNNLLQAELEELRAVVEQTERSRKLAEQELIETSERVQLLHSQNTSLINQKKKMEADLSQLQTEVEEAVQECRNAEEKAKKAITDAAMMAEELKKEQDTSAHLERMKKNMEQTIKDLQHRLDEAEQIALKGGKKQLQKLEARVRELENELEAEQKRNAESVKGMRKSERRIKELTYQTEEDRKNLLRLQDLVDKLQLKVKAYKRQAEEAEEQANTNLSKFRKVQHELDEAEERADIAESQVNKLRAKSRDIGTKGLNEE

Row | Ki [1] | Ki [2] | Structure (SMILES)
1 | 0.28 µM | 1.9 µM | Cc1ccc2c(c1)C(=O)[C@]1(O)CCN(c3ccccc3)C1=N2 [Blebbistatin]
2 | 0.79 µM | > 56 µM | Cc1ccc2c(c1)C(=O)[C@]1(O)CCN(c3ccc(N4CCOCC4)cc3)C1=N2 [Skeletostatin 3, (S)-3a-hydroxy-6-methyl-1-(4-morpholinophenyl)-1,2,3,3a-tetrahydro-4H-pyrrolo[2,3-b]quinolin-4-one]
3 | 0.27 µM | 34 µM | CC(=O)Nc1ccc(N2CC[C@@]3(O)C(=O)c4cc(C)ccc4N=C23)cc1 [Skeletostatin 2, (S)-N-(4-(3a-hydroxy-6-methyl-4-oxo-2,3,3a,4-tetrahydro-1H-pyrrolo[2,3-b]quinolin-1-yl)phenyl)acetamide]
4 | 0.48 µM | 83 µM | Cc1ccc2c(c1)C(=O)[C@]1(O)CCN(c3cnc4nc(C)oc4c3)C1=N2 [Skeletostatin 1, (S)-3a-hydroxy-6-methyl-1-(2-methyloxazolo[4,5-b]pyridin-6-yl)-1,2,3,3a-tetrahydro-4H-pyrrolo[2,3-b]quinolin-4-one]
